Patent publication US7795305B2, “CDDO-compounds and combination therapies thereof” (Board of Regents, The University of Texas System, priority 2000, dated 2010)
Where two headings read alike, the source gives them in different places.

What was measured:
AML progenitors = assay: AML blast colony assay; format: cell-based, human
Description: AML blast colony assay. A previously described method was used to measure AML blast colony formation. Briefly, 1×10^5 T-cell-depleted, nonadherent, low-density bone marrow cells were plated in 0.8% methylcellulose in Iscove's modified Dulbecco's medium (IMDM; Gibco Laboratories, Grand Island, N.Y.) supplemented with 10% fetal bovine serum and 15 ng/mL recombinant human granulocyte-macrophage colony-stimulating factor (hGM-CSF). CDDO or CDDO-Me was added at the initiation of cultures at concentrations ranging from 0.05 to 0.5 μg/mL. AML blast colonies were evaluated under a microscope on day 7 of culture in duplicate dishes.
The effect of CDDO on clonogenic AML cells were tested. […] (FIG. 7).
CDDO-Me. […] Effects of CDDO-Me were also tested on clonogenic AML cells.

primary AML cells = assay: Apoptosis in primary AML samples, subG1 DNA flow cytometry; format: cell-based, human
Description: Subjects. Samples of bone marrow or peripheral blood were obtained for in vitro studies from patients with newly diagnosed or recurrent AML with high (>70%) blast count and from patients with myeloid transformation of chronic myeloid leukemia (CML). Informed consent was obtained following institutional guidelines. Mononuclear cells were separated by Ficoll-Hypaque (Sigma Chemical Co) density-gradient centrifugation.
Suspension culture of leukemic cells. Leukemic cell lines were cultured at a density of 3.0×10^5 cells/mL, and AML mononuclear cells at 5×10^5 cells/mL in the presence or absence of indicated concentrations of CDDO-Me. Appropriate amounts of DMSO (final concentration<0.05%) was included as a control. For cytotoxicity studies, 1 μM ara-C was added to the cultures.
Cell kinetic and DNA fragmentation studies. The cell cycle kinetics was determined by staining cells with acridine orange for cellular DNA and RNA content followed by flow cytometeric analysis as described. […] Ten thousand events were stored in list mode for analysis. The percentage of cells in the “sub G1 peak” defined the proportion of apoptotic cells in the tested populations. […] Cell-cycle kinetics was analyzed using ModFit software (Verity Software House, Inc., Topsham, Me.). […]

[1] = tested on: vascular endothelial cells (HUVECs); assay: Proliferation of cytokine-stimulated vascular endothelial cells ([3H]-Thymidine, microscopy); format: cell-based
Description: CDDO. PPARγ nuclear receptor is expressed in bone marrow endothelial cells, and PPARγ ligands inhibit inhibited endothelial cell proliferation. […] The present inventors therefore tested the effects of CDDO in endothelial cell assays. The formation of tube-like endothelial structures was performed using Matrigel®, a basement membrane matrix extracted from the Engelbreth-Holm Swarm mouse sarcoma cell line. Bone marrow endothelial cells with recombinant angiogenic cytokines were incubated in the presence or absence of CDDO, and formation of tube-like endothelial structures was assessed by direct observation using a inverted contrast-phase microscope. […] Vascular endothelial cells (HUVEC) were grown in EBM-2 or EGM-2 media (Clonetics) containing VEGF, EGF, bFGF and IGF-1. The proliferation of endothelial cells was assessed by inverted contrast-phase microscope after 24 hrs of CDDO exposure in the indicated concentrations. CDDO-Me. The formation of tube-like endothelial structures that are associated with angiogenesis was analyzed using a Matrigel system (Kubota et al., 1988). Capillary-like structure formation of bone marrow endothelium was inhibited by CDDO-Me. […] Thus, CDDO-Me also has anti-angiogenic effects.

[2] = tested on: U937 cells transduced with Bcl-2; assay: Cytotoxicity in Bcl-2 overexpressing cells; format: cell-based, human
From the text: The inventors also tested if overexpression of the anti-apoptotic protein Bcl-2 protected leukemic cells from CDDO-induced cytotoxicity. For these experiments U937 cells transduced with Bcl-2 were used with empty-vector containing counterparts as controls.
To study if the overexpression of Bcl-2 can protect leukemic cells from CDDO-Me-induced cytotoxicity the inventors used U937 cells transduced with Bcl-2 (Vrana et al., 1999) and their empty-vector containing counterparts. […] However, […] overexpressing Bcl-2 exerted almost complete protection from CDDO-Me killing as determined by annexin V-positivity, Phi-Phi-Lux and CMXRos staining. […] In contrast, in p53-negative HL-60 and HL-60-Dox cells Fas was only not induced but IETD-FMK could also not prevent CDDO-Me-induced cell death, indicating involvement of different mechanisms of apoptotic cell death in these cells (Owen-Schaub et al., 1994). […] Thus, induction of the FasL/Fas/caspase-8 pathway is not essential in the execution of CDDO-Me-induced cell death. Post-translational modifications of Bcl-2 are involved in the regulation of apoptosis by CDDO-Me. Thus, Bcl-2 phosphorylation is inhibited by CDDO-Me.

[3] = From the text: Subacute toxicity studies. An important aspect of this invention of CDDO-compounds and its combination therapies with other chemotherapeutics is to assess the toxicity and relative therapeutic efficacy of CDDO-compounds. The preliminary toxicity (i.e. determination of LD50 and MTD [maximum tolerated dose]) of CDDO-compounds was studied in healthy BALB/C mice (male and female, 25-30 g) after single i. v. or oral injections. Seven different dose levels (10 mice/dose level) were used after the appropriate pilot dosing experiments to define a MTD dose for both the oral and iv routes of administration. Animals were observed and weighed daily. The experiment was terminated on day 14. Surviving animals were sacrificed by exposure to carbon dioxide. The unit-dose effect line will be constructed and used to calculate lethal doses LD10 and LD50).
Determination of MTD. 60 female Balb/C mice divided into 12 groups of 5 mice. With 5 mice per dose level, six dose levels for IV or oral drug administration were used.
(§1) Intravenous CDDO administration. Groups of mice received CDDO intravenously as a single bolus injection into the tail vein on Day 1. […] The typical organs from each mouse that are examined include brain, heart, lungs, spleen, pancreas, kidneys, liver, gastrointestinal tract, lymph nodes, muscle, bone marrow, and skin.
as §1, with “CDDO-Me” for “CDDO”

| SMILES | surviving colonies (AML progenitors; 0.1 μM) | surviving colonies (AML progenitors; 0.3 μM) | surviving colonies (AML progenitors; 0.5 μM) | paired mean difference to DMSO control (mean±SEM), apoptotic cells (primary AML cells; 0.1 μM) | paired mean difference to DMSO control (mean±SEM), apoptotic cells (primary AML cells; 0.5 μM) | AML samples in which apoptosis was induced (primary AML cells; 1 μM) | AML samples in which apoptosis was induced (primary AML cells; 5 μM) | samples with more than 90% apoptotic cells (primary AML cells; 5 μM) | cell killing in AML samples (primary AML cells; CDDO-Me 1 μM, ara-C 1 μM, alone or combined, n=6 (DMSO control 24.9±7.4%)) [%] | samples with dose-dependent increase in percentage of apoptotic cells (primary AML cells; lower concentrations) | proliferation / structure formation of cytokine-stimulated vascular endothelial cells [1] | protection by Bcl-2 overexpression (3-fold) [2] | Diagnoses/observations ([3]; CDDO-Me IV single bolus, 1.0 mg/kg, 14 days) | Diagnoses/observations ([3]; mouse, in vivo, iv) | colony formation of AML progenitors reduced (AML progenitors; 1 μM, n=6) [%] | apoptosis in AML samples (primary AML cells; CDDO 1 μM, ara-C 1 μM, alone or combined, n=23 (DMSO control 27.7±3.7%)) [%] | paired mean difference±SEM in apoptosis (primary AML cells; CDDO vs DMSO) | Diagnoses/observations ([3]; mouse, in vivo, iv, 0.3 mg/kg) | Diagnoses/observations ([3]; mouse, in vivo, iv, 3 mg/kg) |
| --- | --- | --- | --- | --- | --- | --- | --- | --- | --- | --- | --- | --- | --- | --- | --- | --- | --- | --- | --- |
| COC(=O)[C@]12CCC(C)(C)C[C@H]1[C@H]1C(=O)C=C3[C@@]4(C)C=C(C#N)C(=O)C(C)(C)[C@@H]4CC[C@@]3(C)[C@]1(C)CC2 [CDDO-Me] | 46.7%±6.6 | 27.5%±6.8 | 8.8%±3.8 | 26.9%±10.8 | 43.2%±5.2 | 5 of 6 | 6 of 6 | 4/6 | 50.5±15 | 4/4 | also inhibited | did not protect cells from CDDO-Me-killing | DIED @ 5 minutes | Myeloid hyperplasia bone marrow | – | – | – | – | – |
| CC1(C)CCC2(C(=O)O)CCC3(C)C(C(=O)C=C4C5(C)C=C(C#N)C(=O)C(C)(C)C5CCC43C)C2C1 (centres unmarked) [CDDO, 2-cyano-3,12-dioxoolen-1,9-dien-28-oic acid] | – | – | – | – | – | 3 of 6 | 5 of 6 | – | – | – | diminished the proliferation | did not protect cells from CDDO-killing | – | – | 58±4.6 | 41.2±4.4 | 13.5%±2.8 | Myeloid hyperplasia bone marrow | Myeloid hyperplasia, bone marrow |
